# Counter-ions that a name gives are not always drawn. Like-named read-outs stand apart in the source and are kept apart here.
# Experiments:
# [1] = target: T1, dopamine-β-hydroxylase (DBH) (Bos taurus, UniProt P15101); assay: Dialysis of enzyme-inhibitor complexes to test reversibility of DBH inhibition; format: biochemical; conditions: for Amount of Product Formed Pre-Dialysis: approx. 3 hour incubation with DBH; for Amount of Product Formed Post-Dialysis: dialyzed overnight, pH 5.5 acetate buffer; for activity at 1000 µM: tyramine alone = 100%
# T1 sequence (P15101 1-610): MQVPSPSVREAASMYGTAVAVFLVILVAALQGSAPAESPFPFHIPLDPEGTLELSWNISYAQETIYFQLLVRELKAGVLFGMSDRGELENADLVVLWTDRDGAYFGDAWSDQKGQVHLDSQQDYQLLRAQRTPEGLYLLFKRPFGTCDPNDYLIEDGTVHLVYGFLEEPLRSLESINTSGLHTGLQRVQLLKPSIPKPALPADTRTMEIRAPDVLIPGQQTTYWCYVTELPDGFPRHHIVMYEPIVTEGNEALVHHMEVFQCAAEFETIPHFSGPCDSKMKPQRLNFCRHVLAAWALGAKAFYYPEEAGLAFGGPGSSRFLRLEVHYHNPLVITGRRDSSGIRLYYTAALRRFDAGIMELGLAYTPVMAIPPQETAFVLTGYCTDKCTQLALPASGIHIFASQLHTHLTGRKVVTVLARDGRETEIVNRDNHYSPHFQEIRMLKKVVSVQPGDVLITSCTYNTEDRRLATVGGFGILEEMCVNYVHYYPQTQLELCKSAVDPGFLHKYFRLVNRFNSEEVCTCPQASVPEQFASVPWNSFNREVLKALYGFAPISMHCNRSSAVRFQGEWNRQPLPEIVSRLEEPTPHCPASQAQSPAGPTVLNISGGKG
# Experimental: (§1) Presently invented also are methods of producing DBH inhibition in mammals, including humans, by administering an effective amount of 2-cyano-2-phenethylamine or a 2-cyano-2-(hydroxyphenyl)ethylamine compound. […] DBH activity was assayed by a standard procedure for measuring the conversion of tyramine to octopamine in the presence of DBH. J. J. Pisano, et al., Biochim. Biophy. Acta, 43, 566-68 (1960). Octopamine was assayed following sodium periodate oxidation to p-hydroxybenzaldehyde by measuring spectrophotometric absorbance at 330 nm.
# Dialysis of enzyme-inhibitor complexes was selected as the approach for testing the reversibility of the inhibition produced by these compounds. A known, reversible DBH inhibitor, fusaric acid, was utilized as a reference standard. Following approximate 3 hour incubation of DBH with one of the inhibitors, the rate of enzymatic conversion of tyramine to octopamine was measured by the standard procedure used in the enzyme kinetic analyses. Thereafter, the enzyme previously incubated with inhibitor was placed in a standard dialysis bag and dialyzed overnight against four changes of pH 5.5 acetate buffer. Following dialysis, the rate of enzymatic conversion of tyramine to octopamine again was measured.
# [2] = tested on: peripheral dopamine (DA) and norepinephrine (NE) levels; assay: In vivo effect on peripheral dopamine and norepinephrine levels; set-up: species or system spontaneously hypertensive rats; conditions: twice; for DA / NE: per gram of tissue, about 2 hours after second dose
# Experimental: One of the 2-cyano-2-phenethylamine compounds also was tested for its effect in vivo on peripheral dopamine (DA) and norepinephrine (NE) levels substantially by the procedure of DaPrada and Zurcher, Life Sciences, 19, 1161, (1976). Groups of five spontaneously hypertensive rats were dosed orally, twice, the second dose approximately 18 hours after the first, and were sacrificed about 2 hours after the second dose.
# [3] = Teresawa et al., Japan. Cir. J. 35, 339 (1971); cited from earlier work
# [4] = tested on: DBH; conditions: Runti et al., Il Farmaco Ed. Sci. 36, 260 (1980); cited from earlier work
# [5] = target: T1, dopamine-β-hydroxylase (DBH); assay: DBH enzyme inhibition kinetics, conversion of tyramine to octopamine; format: biochemical; conditions: several inhibitor concentrations
# Experimental: as §1
# Further, the changing apparent rate constant and the unchanging maxiumum reaction rate indicate that the compounds useful in the presently invented method initially are competitive blockers of substrate-enzyme interactions.
# [6] = tested on: spontaneously hypertensive rats; assay: Mean arterial blood pressure in spontaneously hypertensive rats; format: in vivo; conditions: 100 mg/kg intraperitoneally
# Experimental: Further, spontaneously hypertensive rats were dosed with a suspension or solution of 2-cyano-2-phenethylamine hydrochloride at a dose of 100 mg/kg intraperitoneally, and mean arterial blood pressure was monitored for 260 minutes using indwelling cannulae positioned in the tail arteries. Approximate thirty percent reductions in blood pressure were observed thirty to forty minutes following administration of this compound. At 260 minutes after administration of this compound, blood pressure remained reduced by approximately twenty percent when compared to vehicle-treated controls.
# [7] = Tyramine 10^-2 M and Fusaric Acid 10^-4 M
# [8] = Tyramine 10^-2 M and inhibitor 10^-3 M
molecule,measurement,setting,value
"CCCCc1ccc(C(=O)O)nc1 [Fusaric Acid, reference compound]",activity at 100 µM,"[1]; 3 h, read-out: DBH Activity Pre-Dialysis",2%
same,Amount of Product Formed Pre-Dialysis,[1]; [7],4.0 nM
same,Amount of Product Formed Post-Dialysis,[1]; [7],169.0 nM
same,activity at 100 µM,[1]; read-out: DBH Activity Post-Dialysis,89.2%
same,DA/NE Ratio,"[2]; Experiment 1, 50 mg/kg orally",0.0994 ± 0.007
same,DA,"[2]; Experiment 1, 50 mg/kg orally",0.819 µg/g
same,NE,"[2]; Experiment 1, 50 mg/kg orally",8.31 µg/g
same,DA/NE Ratio,"[2]; Experiment 2, 50 mg/kg orally",0.112 ± 0.0055
same,DA,"[2]; Experiment 2, 50 mg/kg orally",0.615 µg/g
same,NE,"[2]; Experiment 2, 50 mg/kg orally",5.82 µg/g
same,toxic effect,[3],hepatotoxic
phenylpicolinic acid,DBH inhibitory activity relative to fusaric acid,[4],twice the inhibitory activity of fusaric acid
N#CC(CN)c1ccccc1 (stereo not shown) [2-cyano-2-phenethylamine hydrochloride],activity at 1000 µM,"[1]; 3 h, Tyramine 10^-2 M and inhibitor 10^-3 M, read-out: DBH Activity Pre-Dialysis",8%
same,Amount of Product Formed Pre-Dialysis,[1]; [8],15.7 nM
same,Amount of Product Formed Post-Dialysis,[1]; [8],10.5 nM
same,activity at 1000 µM,"[1]; Tyramine 10^-2 M and inhibitor 10^-3 M, read-out: DBH Activity Post-Dialysis",5.5%
same,DA/NE Ratio,"[2]; Experiment 1, 100 mg/kg orally",0.0716 ± 0.004
same,DA,"[2]; Experiment 1, 100 mg/kg orally",0.571 µg/g
same,NE,"[2]; Experiment 1, 100 mg/kg orally",7.96 µg/g
same,DA/NE Ratio,"[2]; Experiment 2, 100 mg/kg orally",0.0628 ± 0.0013
same,DA,"[2]; Experiment 2, 100 mg/kg orally",0.408 µg/g
same,NE,"[2]; Experiment 2, 100 mg/kg orally",6.47 µg/g
same,"DBH activity versus inhibitor concentration (FIG. 1, double-reciprocal plot)",[5],reductions in DBH activity were related directly to increasing 2-cyano-2-phenethylamine hydrochloride concentrations
same,reduction in mean arterial blood pressure compared to vehicle-treated controls,[6]; at 260 minutes after administration,approximately twenty
same,reduction in mean arterial blood pressure,[6]; thirty to forty minutes following administration,thirty
